Among the data in patent US20240199605A1, “SMALL MOLECULAR INHIBITORS OF NF-kB INDUCING KINASE” (Janssen Pharmaceutica NV, priority 2019, published 2024) are IC50 values, retold here.

The structures appear in SMILES notation. Bounds are passed on as bounds.

The subject of assay [1] is p-IKKα levels in L363 (NIK translocated multiple myeloma) cells. As to the kind of experiment: Effect of compounds on p-IKKα levels in L363 cells (AlphaLISA SureFire Ultra). It counts as cell-based, human. As to conditions: Homo sapiens, L-363, 6 h, BAFF stimulated, MG132, 6 h, average of values, read-out: Assay 2 IC50. A digest of the protocol:
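Inhibition of p-IKKα (Ser176/180) read by AlphaLISA after 6 h, 37 °C compound exposure (11-point 1:3 series, 0.3% DMSO) of L363 cells pre-incubated overnight ± 250 ng/ml BAFF and plated ± BAFF ± 10 μM MG132. Normalised to BAFF/MG132/DMSO and unstimulated controls; IC50 by sigmoidal fitting, duplicates.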
(In general: In Alpha technology, singlet oxygen from a donor bead excites a nearby acceptor bead.)

The target of assay [2] is recombinant human NF-kappaB-inducing kinase (NIK/MAP3K14) (Homo sapiens (Human), UniProt Q99558). Kind of assay: Inhibition of auto-phosphorylation of recombinant human NIK/MAP3K14 (AlphaScreen). It counts as biochemical. As to conditions: NIK auto-phosphorylation, 5 μM ATP, 1 nM NIK, 2 h at 25° C.; average of values. A digest of the protocol: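 GST-tagged NIK (1 nM) auto-phosphorylated with 5 μM ATP for 2 h at 25° C. in 50 mM Tris pH 7.5, 5 mM MgCl2, 1 mM EGTA, 1 mM DTT, 0.1 mM Na3VO4, 0.01% Tween 20 (0.7% DMSO). Detected by AlphaScreen via anti-phospho-IKK Ser176/180 antibody; IC50 from sigmoidal fit of % inhibition versus log concentration.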
Sequence of recombinant human NF-kappaB-inducing kinase (NIK/MAP3K14) (Q99558 whole entry): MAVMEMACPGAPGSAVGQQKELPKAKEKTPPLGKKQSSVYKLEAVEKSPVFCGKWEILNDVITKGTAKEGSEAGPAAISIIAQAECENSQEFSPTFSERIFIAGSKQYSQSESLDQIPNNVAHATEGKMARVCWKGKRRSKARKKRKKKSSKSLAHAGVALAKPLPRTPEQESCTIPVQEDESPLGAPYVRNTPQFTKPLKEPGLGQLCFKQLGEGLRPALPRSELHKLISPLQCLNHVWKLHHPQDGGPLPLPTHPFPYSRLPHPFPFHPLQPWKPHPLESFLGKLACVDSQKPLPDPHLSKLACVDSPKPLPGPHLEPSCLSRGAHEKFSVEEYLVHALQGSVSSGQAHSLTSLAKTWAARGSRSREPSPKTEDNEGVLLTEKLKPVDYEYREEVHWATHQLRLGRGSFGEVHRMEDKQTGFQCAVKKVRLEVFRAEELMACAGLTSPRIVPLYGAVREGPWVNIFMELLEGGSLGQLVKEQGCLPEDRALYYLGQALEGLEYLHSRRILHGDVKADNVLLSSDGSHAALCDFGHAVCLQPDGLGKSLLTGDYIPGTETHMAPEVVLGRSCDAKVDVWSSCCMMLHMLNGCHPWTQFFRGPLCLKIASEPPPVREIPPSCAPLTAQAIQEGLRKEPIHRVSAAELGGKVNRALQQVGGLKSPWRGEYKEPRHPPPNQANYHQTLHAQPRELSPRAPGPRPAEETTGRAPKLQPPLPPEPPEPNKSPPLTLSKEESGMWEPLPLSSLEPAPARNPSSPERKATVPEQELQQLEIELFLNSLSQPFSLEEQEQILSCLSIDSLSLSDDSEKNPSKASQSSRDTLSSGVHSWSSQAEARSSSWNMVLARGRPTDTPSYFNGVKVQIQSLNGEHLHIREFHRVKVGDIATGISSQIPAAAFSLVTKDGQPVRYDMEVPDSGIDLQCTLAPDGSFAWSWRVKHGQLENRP

As a reminder, the IC50 is the point on the concentration scale where inhibition reaches its midpoint. For `Cc1nc(N)c2nc(-c3cc(C#C[C@]4(O)CCN(C)C4=O)ccc3C)sc2n1` [Example 182, (R)-3-[2-[3-(7-Amino-5-methyl-thiazolo[5,4-d]pyrimidin-2-yl)-4-methyl-phenyl]ethynyl]-3-hydroxy-1-methyl-pyrrolidin-2-one], the results for the IC50 in assay [1] and in assay [2] were 74 nM and 1.2 nM, respectively.
The matching figures for `Cc1ccc(-c2ncc3ccnc(N)c3n2)cc1C#C[C@]1(O)CCN(C)C1=O` [Example 40, (R)-3-((5-(8-Aminopyrido[3,4-d]pyrimidin-2-yl)-2-methylphenyl)ethynyl)-3-hydroxy-1-methylpyrrolidin-2-one]: 210 nM and 0.7 nM.
The matching figures for `Cc1nc(N)c2nc(-c3cccc(C#C[C@@]4(O)CCN(C)C4=O)c3)ccc2n1` [Example 7, (S)-3-((3-(4-Amino-2-methylpyrido[3,2-d]pyrimidin-6-yl)phenyl)ethynyl)-3-hydroxy-1-methylpyrrolidin-2-one]: 2300 nM and 170 nM.
For `Cc1ncc(Br)c2ccc(-c3cccc(C#C[C@]4(O)CCN(C)C4=O)c3)nc12` [Example 249, (R)-3-((3-(5-Bromo-8-methyl-1,7-naphthyridin-2-yl)phenyl)ethynyl)-3-hydroxy-1-methylpyrrolidin-2-one], the IC50 in assay [1] worked out at 470 nM; in assay [2] it was 7.3 nM.
The matching figures for `Cc1n[nH]c(C)c1-c1cnc(N)c2nc(-c3cccc(C#C[C@]4(O)CCN(C)C4=O)c3)ncc12` [Example 125, (R)-3-[2-[3-[8-Amino-5-(3,5-dimethyl-1H-pyrazol-4-yl)pyrido[3,4-d]pyrimidin-2-yl]phenyl]ethynyl]-3-hydroxy-1-methyl-pyrrolidin-2-one]: 18 nM and no more than 0.5 nM.
Take `CN1CC[C@@](O)(C#Cc2cccc(-c3ncc4ccnc(N5CCC5)c4n3)c2)C1=O` [Example 247, (R)-3-((3-(8-(Azetidin-1-yl)pyrido[3,4-d]pyrimidin-2-yl)phenyl)ethynyl)-3-hydroxy-1-methylpyrrolidin-2-one]: the IC50 in assay [1] was greater than 5000 nM; in assay [2], 850 nM.
The matching figures for `Cc1nc(N)c2nc(-c3cccc(C#C[C@](C)(O)c4ncc(C)s4)c3)ccc2n1` [Example 166, (S)-4-(3-(4-Amino-2-methylpyrido[3,2-d]pyrimidin-6-yl)phenyl)-2-(5-methylthiazol-2-yl)but-3-yn-2-ol]: greater than 5000 nM and 4700 nM.
`CC(=O)Nc1nc(C)nc2ccc(-c3cccc(C#C[C@]4(O)CCN(C)C4=O)c3)nc12` [Example 258, (R)—N-(6-(3-((3-Hydroxy-1-methyl-2-oxopyrrolidin-3-yl)ethynyl)phenyl)-2-methylpyrido[3,2-d]pyrimidin-4-yl)acetamide]: the IC50 in assay [1] amounted to 450 nM; in assay [2] it was 210 nM.
`Cc1nc(N)c2nc(-c3cccc(C#C[C@]4(O)C[C@@H](C)N(C)C4=O)c3)ccc2n1` [Example 265, (3R,5R)-3-((3-(4-Amino-2-methylpyrido[3,2-d]pyrimidin-6-yl)phenyl)ethynyl)-3-hydroxy-1,5-dimethylpyrrolidin-2-one]: the figures for the IC50 in assay [1] and in assay [2] were 28 nM and 1.9 nM, respectively.
In the case of `C[C@@](O)(C#Cc1cccc(-c2cnc3ncnc(N)c3c2)c1)c1nccs1` [Example 108, (R)-4-(3-(4-Aminopyrido[2,3-d]pyrimidin-6-yl)phenyl)-2-(thiazol-2-yl)but-3-yn-2-ol], the figures for the IC50 in assay [1] and in assay [2] were greater than 5000 nM and 7.6 nM, respectively.
The matching figures for `Cc1cc([C@](C)(O)C#Cc2cccc(-c3ccc4ccnc(N)c4n3)c2)no1` [Example 89, (R)-4-[3-(8-Amino-1,7-naphthyridin-2-yl)phenyl]-2-(5-methylisoxazol-3-yl)but-3-yn-2-ol]: 590 nM and 2.3 nM.
As for `Cc1csc([C@@](C)(O)C#Cc2cccc(-c3ccc4nc(C)nc(N)c4n3)c2)n1` [Example 181, (S)-4-(3-(4-Amino-2-methylpyrido[3,2-d]pyrimidin-6-yl)phenyl)-2-(4-methylthiazol-2-yl)but-3-yn-2-ol], the IC50 in assay [1] and in assay [2] was greater than 5000 nM throughout.
On to `CC(C)Cc1ccc(C#C[C@]2(O)CCN(C)C2=O)cc1-c1ncc2ccnc(N)c2n1` [Example 54, (R)-3-((3-(8-Aminopyrido[3,4-d]pyrimidin-2-yl)-4-isobutylphenyl)ethynyl)-3-hydroxy-1-methylpyrrolidin-2-one], for which the IC50 worked out at 280 nM in assay [1] and 10 nM in assay [2].
On to `Nc1ncnc2cnc(-c3cccc(C#C[C@]4(O)CCc5cccnc54)c3)nc12` [Example 144, (R)-7-((3-(8-Aminopyrimido[5,4-d]pyrimidin-2-yl)phenyl)ethynyl)-6,7-dihydro-5H-cyclopenta[b]pyridin-7-ol], for which the IC50 is greater than 5000 nM in assay [1] and 2290 nM in assay [2].
Regarding `CN1CC[C@@](O)(C#Cc2cccc(-c3ncc4c(-c5cnn(C)c5)cnc(N)c4n3)c2)C1=O` [Example 122, (R)-3-[2-[3-[8-Amino-5-(1-methylpyrazol-4-yl)pyrido[3,4-d]pyrimidin-2-yl]phenyl]ethynyl]-3-hydroxy-1-methyl-pyrrolidin-2-one], the figures for the IC50 in assay [1] and in assay [2] were 2.3 nM and no more than 0.5 nM, respectively.
The matching figures for `Cc1cc([C@](C)(O)C#Cc2cccc(-c3ccc4ncnc(N)c4n3)c2)no1` [Example 95, (R)-4-(3-(4-Aminopyrido[3,2-d]pyrimidin-6-yl)phenyl)-2-(5-methylisoxazol-3-yl)but-3-yn-2-ol]: 28 nM and 0.8 nM.
Consider `CN1CC[C@@](O)(C#Cc2cccc(-c3ccc4ncnc(NCC(F)F)c4n3)c2)C1=O` [Example 241, (R)-3-((3-(4-((2,2-Difluoroethyl)amino)pyrido[3,2-d]pyrimidin-6-yl)phenyl)ethynyl)-3-hydroxy-1-methylpyrrolidin-2-one], for which the IC50 in assay [1] was determined as 930 nM; in assay [2], 56 nM.
`Cc1cc([C@](C)(O)C#Cc2ccc(C)c(-c3ccc4ccnc(N)c4c3)c2)no1` [Example 79, (R)-4-[3-(1-Amino-7-isoquinolyl)-4-methyl-phenyl]-2-(5-methylisoxazol-3-yl)but-3-yn-2-ol]: the IC50 was greater than 5000 nM in assay [1] and 590 nM in assay [2].
Turning to `CN1CC[C@@](O)(C#Cc2cccc(-c3ccc4ncnc(-c5ccccc5)c4n3)c2)C1=O` [Example 257, (R)-3-Hydroxy-1-methyl-3-((3-(4-phenylpyrido[3,2-d]pyrimidin-6-yl)phenyl)ethynyl)pyrrolidin-2-one], the IC50 in assay [1] is 2460 nM; in assay [2] it was 44 nM.
Take `Cc1nc(N)c2nc(-c3cccc(C#C[C@](C)(O)c4cnccn4)c3)ccc2n1` [Example 201, (S)-4-[3-(4-Amino-2-methyl-pyrido[3,2-d]pyrimidin-6-yl)phenyl]-2-pyrazin-2-yl-but-3-yn-2-ol]: the IC50 is greater than 5000 nM in assay [1] and 4030 nM in assay [2].
As for `[2H]c1nc(N)c2nc(-c3cccc(C#CC4(O)CCN(CC=C)C4=O)c3)ccc2n1` (racemic) [Example 196, racemic-1-Allyl-3-((3-(4-aminopyrido[3,2-d]pyrimidin-6-yl-2-d)phenyl)ethynyl)-3-hydroxypyrrolidin-2-one], the IC50 amounted to 250 nM in assay [1] and 4.4 nM in assay [2].
